Measurements taken from patent publication US6531584B1, “2'modified oligonucleotides” (ISIS Pharmaceuticals, Inc., priority 1990, dated 2003).
“Also recorded” adds a separate entry of the source.

Legend:
[1] = test system: RNA complement “Y” strand ribo(3′GAG CAU GGY AAG GCC AGG5′); test: Base-pair specificity: single base mismatches and bulge, thermal melting; type: binding; conditions: single base-pair mismatches and a bulge
Method: The ability of the 2′-modified oligonucleotides to hybridize to their complementary RNA or DNA sequences was determined by thermal melting analysis. The RNA complement was synthesized from T7 RNA polymerase and a template-promoter of DNA synthesized with an Applied Biosystems, Inc. 380B RNA species was purified by ion exchange using FPLC (LKB Pharmacia, Inc.). Natural antisense oligonucleotides or those containing 2′-modifications at specific locations were added to either the RNA or DNA complement at stoichiometric concentrations and the absorbance (260 nm) hyperchromicity upon duplex to random coil transition was monitored using a Gilford Response II spectrophotometer. These measurements were performed in a buffer of 10 mM Na-phosphate, pH 7.4, 0.1 mM EDTA, and NaCl to yield an ionic strength of 10 either 0.1 M or 1.0 M. Data was analyzed by a graphic representation of 1/Tm vs ln[Ct], where [Ct] was the total oligonucleotide concentration. From this analysis the thermodynamic parameters were determined. Based upon the information gained concerning the stability of the duplex of heteroduplex formed, the placement of modified pyrimidine into oligonucleotides were assessed for their effects on helix stability.
Base-pair specificity of 2′-deoxy-2′-fluoro modified oligonucleotides with the RNA complement (a “Y” strand) was determined by effecting single base-pair mismatches and a bulge. […]

ras mRNA = test: Northern blot analysis of ras expression in T24 cells; type: cell-based, human; design: inhibition of ras expression / decrease of ras mRNA: concentration or dose not given beside the values; conditions: for inhibition of ras expression: T24 cells (activated codon-12); for inhibition of ras expression / decrease of ras mRNA: T24 cells, Northern blot
Method: (§1) The human urinary bladder cancer cell line T24 was obtained from the American Type Culture Collection (Rockville Md.). Cells were grown in McCoy's 5A medium with L-glutamine (GIBCO-BRL, Gaithersburg, Md.), supplemented with 10% heat-inactivated fetal calf serum and 50 U/ml each of penicillin and streptomycin. Cells were seeded on 100 mm plates. When they reached 70% confluency, they were treated with oligonucleotide. Plates were washed with 10 ml prewarmed PBS and 5 ml of OptiMEM (GIBCO) reduced-serum medium containing 2.5 μl DOTMA. Oligonucleotide was then added to the desired concentration. After 4 hours of treatment, the medium was replaced with McCoy's medium. Cells were harvested 48 hours after oligonucleotide treatment and RNA was isolated using a standard CsCl purification method. [Kingston in Current Protocols in Molecular Biology, F. M. Ausubel, R. Brent, R. E. Kingston, D. D. Moore, J. A. Smith, J. G. Seidman and K. Strahl, Eds., John Wiley and Sons, New York.] The human epithelioid carcinoma cell line HeLa 229 was obtained from the American Type Culture Collection (Bethesda, Md.). HeLa cells were maintained as monolayers on 6-well plates in Dulbecco's Modified Eagle's medium (DMEM) supplemented with 10% fetal bovine serum and 100 U/ml penicillin. Treatment with oligonucleotide and isolation of RNA were essentially as described above for T24 cells.
Northern hybridization: 10 μg of each RNA was electrophoresed on a 1.2% agarose/formaldehyde gel and transferred overnight to GeneBind 45 nylon membrane (Pharmacia LKB, Piscataway, N.J.) using standard methods. [Kingston in Current Protocols in Molecular Biology, F. M. Ausubel, R. Brent, R. E. Kingston, D. D. Moore, J. A. Smith, J. G. Seidman and K. Strahl, Eds., John Wiley and Sons, New York.] RNA was UV-crosslinked to the membrane. Double-stranded ^32P-labeled probes were synthesized using the Prime a Gene labeling kit (Promega, Madison, Wis.). The ras probe was a SalI-NheI fragment of a cDNA clone of the activated (mutant) H-ras mRNA having a GGC-to-GTC mutation at codon-12. The control probe was G3PDH. Blots were prehybridized for 15 minutes at 68° C. with the QuickHyb hybridization solution (Stratagene, La Jolla, Calif.). The heat-denatured radioactive probe (2.5×10^6 counts/2 ml hybridization solution) mixed with 100 μl of 10 mg/ml salmon sperm DNA was added and the membrane was hybridized for 1 hour at 68° C. The blots were washed twice for 15 minutes at room temperature in 2×SSC/0.1% SDS and once for 30 minutes at 60° C. with 0.1×SSC/0.1%SDS. Blots were autoradiographed and the intensity of signal was quantitated using an ImageQuant PhosphorImager (Molecular Dynamics, Sunnyvale, Calif.). Northern blots were first hybridized with the ras probe, then stripped by boiling for 15 minutes in 0.1×SSC/0.1%SDS and rehybridized with the control G3PDH probe to check for correct sample loading.

[2] = test system: ras mRNA (wild-type H-ras codon-12); test: Northern blot analysis of ras expression in HeLa cells; type: cell-based, human; conditions: HeLa cells (wild-type H-ras codon-12)
Method: as §1, with “The human epithelioid carcinoma cell line HeLa 229 was obtained from the American Type Culture Collection (Bethesda, Md.). HeLa cells were maintained as monolayers on 6-well plates in Dulbecco's Modified Eagle's medium (DMEM) supplemented with 10% fetal bovine serum and 100 U/ml penicillin. Treatment with oligonucleotide and isolation of RNA were essentially as described above for T24 cells.” left out
Northern hybridization: 10 μg of each RNA was electrophoresed on a 1.2% agarose/formaldehyde gel and transferred overnight to GeneBind 45 nylon membrane (Pharmacia LKB, Piscataway, N.J.) using standard methods. […] Blots were autoradiographed and the intensity of signal was quantitated using an ImageQuant PhosphorImager (Molecular Dynamics, Sunnyvale, Calif.). […]

[3] = test system: mutant (activated) H-ras RNA; type: cell-based, human
T24 cancer cell = test: Inhibition of proliferation of cancer cells; type: cell-based, human; conditions: 100 nM oligonucleotide concentration
Method: Cells were cultured and treated with oligonucleotide essentially as described in Example 27. Cells were seeded on 60 mm plates and were treated with oligonucleotide in the presence of DOTMA when they reached 70% confluency. Time course experiment: On day 1, cells were treated with a single dose of oligonucleotide at a final concentration of 100 nM. The growth medium was changed once on day 3 and cells were counted every day for 5 days, using a counting chamber. Dose-response experiment: Various concentrations of oligonucleotide (10, 25, 50, 100 or 250 nM) were added to the cells and cells were harvested and counted 3 days later. Oligonucleotides 2570, 3985 and 4690 were tested for effects on T24 cancer cell proliferation. EXAMPLE 29

c-raf mRNA = test: Northern blot analysis of c-raf mRNA expression in T24 cells; type: cell-based, human
Description: Chimeric oligonucleotides having SEQ ID NO:7 were designed using the Genbank c-raf sequence HUMRAFR (Genbank listing x03484), synthesized and tested for inhibition of c-raf mRNA expression in T24 bladder carcinoma cells using a Northern blot assay. These chimeric oligonucleotides have central “gap” regions of 6, 8 or 10 deoxynucleotides flanked by two regions of 2′-O-methyl modified nucleotides, and are shown in Table 10. Backbones were uniformly phosphorothioate. […] These oligonucleotides are preferred.
The human urinary bladder cancer cell line T24 was obtained from the American Type Culture Collection (Rockville, Md.). Cells were grown in McCoy's 5A medium with L-glutamine (GIBCO-BRL, Gaithersburg, Md.), supplemented with 10% heat-inactivated fetal calf serum and 50 U/ml each of penicillin and streptomycin. Cells were seeded on 100 mm plates. When they reached 70% confluency, they were treated with oligonucleotide. Plates were washed with 10 ml prewarmed PBS and 5 ml of OptiMEM reduced-serum medium containing 2.5 μl DOTMA. Oligonucleotide with lipofectin was then added to the desired concentration. After 4 hours of treatment, the medium was replaced with McCoy's medium. Cells were harvested 24 to 72 hours after oligonucleotide treatment and RNA was isolated using a standard CsCl purification method. [Kingston in Current Protocols in Molecular Biology, F. M. Ausubel, R. Brent, R. E. Kingston, D. D. Moore, J. A. Smith, J. G. Seidman and K. Strahl, Eds., John Wiley and Sons, New York.] Total RNA was isolated by centrifugation of cell lysates over a CsCl cushion. RNA samples were electrophoresed through 1.2% agarose-formaldehyde gels and transferred to hybridization. membranes by capillary diffusion over a 12-14 hour period. The RNA was cross-linked to the membrane by exposure to UV light in a Stratalinker (Stratagene, La Jolla, Calif.) and hybridized to random-primed ^32P-labeled c-raf cDNA probe (obtained from ATCC) or G3PDH probe as a control. RNA was quantitated using a Phosphorimager (Molecular Dynamics, Sunnyvale, Calif.).

## deoxy(CUC GUACCUUUCCGG UCC) (CUCGUACCUUUCCGGUCC; 14 2'-deoxy-2'-fluoro nucleotides, chemistry not fully specified)
[1]
  specificity of duplex formation with the RNA complement: greater specificity than a like-sequenced unmodified oligonucleotide

## TCCGTCATCGCTCCTCAGGG [Oligonucleotide 2503]
Ras mRNA
  inhibition of ras expression: inhibited ras expression in T24 cells
Ras mRNA; listed as 2503
  inhibition of ras expression / decrease of ras mRNA: 71%
[2]
  inhibition of ras expression: inhibited ras expression in HeLa cells

## CdCdAd CdAdCd CdGdAd CdGdGd CdGdCd CdCd [Oligonucleotide 2570, reference compound]
[3]
  inhibition of ras-luciferase activity: dose-dependent inhibition of ras-luciferase activity
  selectivity toward the mutant form of ras-luciferase as compared to the normal form: approximate threefold selectivity
Ras mRNA
  inhibition of ras expression: inhibited ras expression in T24 cells; also recorded: decreased ras mRNA levels in T24 cells
  inhibition of ras expression / decrease of ras mRNA: 82%
[2]
  inhibition of ras expression: did not inhibit ras expression in HeLa cells
T24 cancer cell
  inhibition of T24 cell proliferation relative to inhibition of HeLa cells: four times as severe

## TCCCGCCTGTGACATGCATT (2'-O-methyl P=S chimera, 8-deoxy gap, chemistry not fully specified) [ISIS 6717]
c-raf mRNA
  inhibition of c-raf mRNA expression: greater than 90%

## CTCGCCCGCTCCTCCTCCCC (2'-O-methyl P=S chimera, chemistry not fully specified) [ISIS 7849]
c-raf mRNA
  inhibition of c-raf mRNA expression: > 70%

## TCCCGCCTGTGACATGCATT (2'-O-methyl P=S chimera, 6-deoxy gap, chemistry not fully specified) [ISIS 6720]
c-raf mRNA
  inhibition of c-raf mRNA expression: greater than 70%

## TCCTCCTCCCCGCGGCGGGT (2'-O-methyl P=S chimera, chemistry not fully specified) [ISIS 7848]
c-raf mRNA
  inhibition of c-raf mRNA expression: > 70%
